Results taken from patent publication US20180243345A1, “METHOD FOR INCREASING MUSCLE GROWTH USING KRILL EXTRACT” (AVOCA, INC., priority 2015, published 2018).

Test system: mTOR signaling
Assay: mTOR signaling in C2C12 myoblasts (Western blot, ratio of P-p70-389 to total p70)
Type: cell-based
Conditions: for mTOR signaling (ratio of P-p70-389 to total p70): 20 minutes stimulation, compared to vehicle; for mTOR signaling compared with another stimulant, in words / change in ratio of P-p70-389 to total p70 (mTOR signaling) compared to vehicle/control, in words: 10 or 30 μM, 20 minutes
Experimental: C2C12 myoblasts were plated at approximately 30% confluence and grown for 24 hours in 10% FBS High Glucose DMEM with antibiotics (100m/ml streptomycin and 100 U/ml penicillin; Sigma). At 16 hours prior to the experiment, myoblasts cells were switched to serum free high glucose DMEM (no antibiotics) and were approximately 70% confluent at the time of the experiment. All stimulants were dissolved in chloroform to yield a concentration of 10 mg/mL, with the exception of DAG which was dissolved at 2 mg/mL and G3P which was dissolved at 6 mg/mL. […] Accordingly, cells were stimulated for 20 minutes with vehicle (Control; 100 μL of PBS) 10 or 30 μM of RIMFROST Sublime Krill Oil Extract (Rimfrost USA, Inc, Merry Hill, N.C.), soy-derived (S) phosphatidylserine (S-PS), phosphatidylinositol (S-PI), phosphatidylethanolamine (S-PE), phosphatidylcholine (S-PC), phosphatidic acid (S-PA), lysophosphatidic acid (S-LPA), diacylglycerol (DAG), glycerol-3-phosphate (G3P), or egg-derived PA (E-PA). Cells were then harvested in lysis buffer (40 mM Tris, pH 7.5; 1 mM EDTA; 5 mM EGTA; 0.5% Triton X-100; 25 mM (3-glycerophosphate; 25 mM NaF; 1 mM Na3VO4; 10 μg/mL leupeptin; and 1 mM PMSF) and subjected to immunoblotting as previously described. The ratio of P-p70-389 to total p70 was used as readout for mTOR signaling. As used in the Examples disclosed herein, 10 μM of RIMFROST Sublime Krill Oil Extract contains 0.01253 μM PS, which is 0.6% of the phospholipid content; and 30 μM of RIMFROST Sublime Krill Oil Extract contains 0.0376 μM PS, which is 0.6% of the phospholipid content.
The data was analyzed using a one way analysis of variance (ANOVA). A Tukey's Multiple Comparison Test was used to determine significant differences between treatments. Significance was set at P<0.05. Statistical analyses were performed on SigmaStat software (San Jose, Calif., USA).
In accordance with the materials and methods described above, krill extract, S-PC, S-PS, and S-PA were tested for their ability to activate mTOR signaling. […] The samples were then subjected to Western blot analysis for p70S6K phosphorylation on the threonine 389 residue (p′70-389) and total p70. The ratio of these signals was calculated and used as a marker of mTOR signaling.

| Compound | mTOR signaling (ratio of P-p70-389 to total p70) (taken as 10 μM) | mTOR signaling (ratio of P-p70-389 to total p70) (taken as 30 μM) | mTOR signaling compared with another stimulant, in words | change in ratio of P-p70-389 to total p70 (mTOR signaling) compared to vehicle/control, in words |
| --- | --- | --- | --- | --- |
| phosphatidic acid [E-PA] | 206% | 221% |  |  |
| phosphatidylserine [S-PS] | 529% | 558% |  |  |
| phosphatidic acid [S-PA] | 658% | 636% | to a greater degree than did E-PA |  |
| phosphatidylethanolamine [S-PE] |  |  |  | no increase |
| phosphatidylcholine [S-PC] |  |  |  | no increase |
| O=P(O)(O)OCC(O)CO (stereo not drawn) [G3P, glycerol-3-phosphate] |  |  |  | no increase |
| diacylglycerol [DAG] |  |  |  | no increase |
| phosphatidylinositol [S-PI] |  |  |  | no increase |
| lysophosphatidic acid [S-LPA] | 638% | 694% | to a greater degree than did E-PA |  |
